# Results from US8753875B2, “Compositions and means for diagnosing microbial infections” (priority 2007, dated 2014).
# Like-named read-outs stand apart in the source and are kept apart here.
# Experiments:
# [1] = tested on: E. coli; test: Growth of E. coli in antibiotic compartments of the platform (FIG. 3); format: cell-based; settings: illustrated E. coli of FIG. 3
# Text: The photos show growth of E. coli at different quantities of bacteria/ml urine.
# [2] = tested on: P. vulgaris; test: Growth on Flexicult plate, susceptibility/resistance to the five antibiotics (FIG. 4, Table A); format: cell-based
# Text: (§1) The kit was developed for urine culture in the primary health care setting. It is designed preferably as a nine cm Petri dish divided into six compartments: One larger compartment for quantitative analysis and five smaller compartments for susceptibility testing. The agar in each small compartment contains one of five antimicrobials (for Denmark and Scandinavia preferably: trimethoprim, sulfamethizole, ampicillin, nitrofurantoin and mecillinam (amdinocillin)) at a concentration adjusted to the breakpoint, such that growth in these compartments indicates resistance, and no growth indicates susceptibility. The Petri dish preferably has higher sides, approximately 2.48 cm, than the usual dish, i.e. ca. 1.48 cm. This allows a larger amount, maximum 100 ml, of urine to be poured onto the dish for inoculation.
# (§2) Reading the susceptibility of the bacterial growth: Each bacterium (if more than one) is read individually: The growth in each of the antibiotic fields is compared with the growth on the control agar. […] If there is no growth (or substantially less than the control agar), then the bacterium is considered to be susceptible to the antibiotic. […] When nitrofurantoin and mecillinam are used as antibiotics, a few single colonies may be seen of the same type as the bacterium on the control agar: These are not considered to be resistant mutants but “persisters,” i.e. if retested they will appear susceptible. This is commonly seen also by disc diffusion especially for mecillinam.
# [3] = tested on: Enterobacter spp; test: as above; format: cell-based
# Text: as §1, §2
# [4] = tested on: S. saprophyticus; test: as above; format: cell-based
# Text: as §1, §2
# [5] = tested on: E. coli; test: as above; format: cell-based
# Text: as §1, §2
# [6] = tested on: Proteus mirabilis; test: as above; format: cell-based
# Text: as §1, §2
# [7] = tested on: Candida spp.; test: as above; format: cell-based
# Text: as §1, §2
# [8] = tested on: Morganella spp.; test: as above; format: cell-based
# Text: as §1, §2
# [9] = tested on: Klebsiella spp.; test: as above; format: cell-based
# Text: as §1, §2
# [10] = tested on: E. faecalis; test: as above; format: cell-based
# Text: as §1, §2
# [11] = tested on: E. faecium; test: as above; format: cell-based
# Text: as §1, §2
# [12] = tested on: P. aureginosa; test: as above; format: cell-based
# Text: as §1, §2
# [13] = tested on: Citrobacter spp.; test: as above; format: cell-based
# Text: as §1, §2
# [14] = tested on: E. coli; settings: 1142 E. coli outpatient urinary isolates, USA and Canada; cited from earlier work
# [15] = tested on: E. coli; settings: cited from earlier work
# [16] = tested on: Enterobacter; parameters: key: Susceptible = S; Resistant = R; settings: cited from earlier work
# [17] = tested on: Morganella; parameters: key: Susceptible = S; Resistant = R; settings: cited from earlier work
# [18] = tested on: Citrobacter; parameters: key: Susceptible = S; Resistant = R; settings: cited from earlier work
# [19] = tested on: P. mirabilis; parameters: key: Susceptible = S; Resistant = R; settings: cited from earlier work
# [20] = tested on: E. coli; parameters: key: Susceptible = S; Resistant = R; settings: cited from earlier work
# [21] = tested on: S. agalactiae; parameters: key: Susceptible = S; Resistant = R; settings: cited from earlier work
# [22] = tested on: Klebsiella; parameters: key: Susceptible = S; Resistant = R; settings: cited from earlier work
# [23] = tested on: Pseud. Aeruginosa; parameters: key: Susceptible = S; Resistant = R; settings: cited from earlier work
# [24] = tested on: E. faecalis; parameters: key: Susceptible = S; Resistant = R; settings: cited from earlier work
# [25] = tested on: E. faecium; parameters: key: Susceptible = S; Resistant = R; settings: cited from earlier work
# [26] = tested on: Candida sp.; parameters: key: Susceptible = S; Resistant = R; settings: cited from earlier work
# [27] = tested on: P. vulgaris; parameters: key: Susceptible = S; Resistant = R; settings: cited from earlier work
# [28] = tested on: S. saprophyticus; parameters: key: Susceptible = S; Resistant = R; settings: cited from earlier work
molecule,measurement,setting,value
Cc1nnc(NS(=O)(=O)c2ccc(N)cc2)s1 [Sulfamethizole],resistant or susceptible (growth in antibiotic compartment),[1],resistant
same,Susceptibility = S or Resistance = R,[2],S
same,Susceptibility = S or Resistance = R,[3],R
same,Susceptibility = S or Resistance = R,[4],S
same,Susceptibility = S or Resistance = R,[5],R
same,Susceptibility = S or Resistance = R,[6],S
same,Susceptibility = S or Resistance = R,[7],R
same,Susceptibility = S or Resistance = R,[8],S
same,Susceptibility = S or Resistance = R,[9],S
same,Susceptibility = S or Resistance = R,[10],R
same,Susceptibility = S or Resistance = R,[11],R
same,Susceptibility = S or Resistance = R,[12],R
same,Susceptibility = S or Resistance = R,[13],S
trimethoprim/sulfamethoxazole [SXT],Overall resistance in E. coli,[14],21.3%
same,Antimicrobial resistance of E. coli (resistance in percent),"[15]; Austria, n 126",9.5%
same,Antimicrobial resistance of E. coli (resistance in percent),"[15]; Belgium, n 137",14.6%
same,Antimicrobial resistance of E. coli (resistance in percent),"[15]; Canada, n 166",12.0%
same,Antimicrobial resistance of E. coli (resistance in percent),"[15]; Denmark, n 85",8.2%
same,Antimicrobial resistance of E. coli (resistance in percent),"[15]; Finland, n 182",4.9%
same,Antimicrobial resistance of E. coli (resistance in percent),"[15]; France, n 199",15.1%
same,Antimicrobial resistance of E. coli (resistance in percent),"[15]; Germany, n 138",21.0%
same,Antimicrobial resistance of E. coli (resistance in percent),"[15]; Greece, n 132",11.4%
same,Antimicrobial resistance of E. coli (resistance in percent),"[15]; Ireland, n 154",20.8%
same,Antimicrobial resistance of E. coli (resistance in percent),"[15]; Luxembourg, n 24",16.7%
same,Antimicrobial resistance of E. coli (resistance in percent),"[15]; Norway, n 168",11.3%
same,Antimicrobial resistance of E. coli (resistance in percent),"[15]; Portugal, n 86",26.7%
same,Antimicrobial resistance of E. coli (resistance in percent),"[15]; Spain, n 191",25.7%
same,Antimicrobial resistance of E. coli (resistance in percent),"[15]; Sweden, n 193",8.3%
same,Antimicrobial resistance of E. coli (resistance in percent),"[15]; Switzerland, n 122",18.9%
same,Antimicrobial resistance of E. coli (resistance in percent),"[15]; The Netherlands, n 195",10.3%
same,Antimicrobial resistance of E. coli (resistance in percent),"[15]; Total, n 2478",14.1%
same,Antimicrobial resistance of E. coli (resistance in percent),"[15]; United Kingdom, n 180",12.2%
"O=C(O)c1cn(C2CC2)c2cc(N3CCNCC3)c(F)cc2c1=O [CIP, 1-cyclopropyl-6-fluoro-4-oxo-7-piperazin-1-yl-quinoline-3-carboxylic acid]",Overall resistance in E. coli,[14],5.5%
same,Antimicrobial resistance of E. coli (resistance in percent),"[15]; Austria, n 126",0%
same,Antimicrobial resistance of E. coli (resistance in percent),"[15]; Belgium, n 137",2.9%
same,Antimicrobial resistance of E. coli (resistance in percent),"[15]; Canada, n 166",0%
same,Antimicrobial resistance of E. coli (resistance in percent),"[15]; Denmark, n 85",0%
same,Antimicrobial resistance of E. coli (resistance in percent),"[15]; Finland, n 182",0.5%
same,Antimicrobial resistance of E. coli (resistance in percent),"[15]; France, n 199",2.0%
same,Antimicrobial resistance of E. coli (resistance in percent),"[15]; Germany, n 138",2.2%
same,Antimicrobial resistance of E. coli (resistance in percent),"[15]; Greece, n 132",1.5%
same,Antimicrobial resistance of E. coli (resistance in percent),"[15]; Ireland, n 154",0%
same,Antimicrobial resistance of E. coli (resistance in percent),"[15]; Luxembourg, n 24",4.2%
same,Antimicrobial resistance of E. coli (resistance in percent),"[15]; Norway, n 168",0%
same,Antimicrobial resistance of E. coli (resistance in percent),"[15]; Portugal, n 86",5.8%
same,Antimicrobial resistance of E. coli (resistance in percent),"[15]; Spain, n 191",14.7%
same,Antimicrobial resistance of E. coli (resistance in percent),"[15]; Sweden, n 193",0%
same,Antimicrobial resistance of E. coli (resistance in percent),"[15]; Switzerland, n 122",2.5%
same,Antimicrobial resistance of E. coli (resistance in percent),"[15]; The Netherlands, n 195",2.1%
same,Antimicrobial resistance of E. coli (resistance in percent),"[15]; Total, n 2478",2.3%
same,Antimicrobial resistance of E. coli (resistance in percent),"[15]; United Kingdom, n 180",0.6%
"COc1cc(Cc2cnc(N)nc2N)cc(OC)c1OC [Trimethoprim, S-(3,4,5-trimethoxybenzyl)pyrimidine-2,4-diamine]",Normal susceptibility/resistance,[16],S
same,Normal susceptibility/resistance,[17],S
same,Normal susceptibility/resistance,[18],S
same,Normal susceptibility/resistance,[19],S
same,Normal susceptibility/resistance,[20],S
same,resistant or susceptible (growth in antibiotic compartment),[1],susceptible
same,Normal susceptibility/resistance,[21],S
same,Normal susceptibility/resistance,[22],S
same,Normal susceptibility/resistance,[23],R
same,Antimicrobial resistance of E. coli (resistance in percent),"[15]; Austria, n 126",9.5%
same,Antimicrobial resistance of E. coli (resistance in percent),"[15]; Belgium, n 137",13.9%
same,Antimicrobial resistance of E. coli (resistance in percent),"[15]; Canada, n 166",10.8%
same,Antimicrobial resistance of E. coli (resistance in percent),"[15]; Denmark, n 85",10.6%
same,Antimicrobial resistance of E. coli (resistance in percent),"[15]; Finland, n 182",5.5%
same,Antimicrobial resistance of E. coli (resistance in percent),"[15]; France, n 199",15.6%
same,Antimicrobial resistance of E. coli (resistance in percent),"[15]; Germany, n 138",22.5%
same,Antimicrobial resistance of E. coli (resistance in percent),"[15]; Greece, n 132",13.6%
same,Antimicrobial resistance of E. coli (resistance in percent),"[15]; Ireland, n 154",22.1%
same,Antimicrobial resistance of E. coli (resistance in percent),"[15]; Luxembourg, n 24",16.7%
same,Antimicrobial resistance of E. coli (resistance in percent),"[15]; Norway, n 168",13.1%
same,Antimicrobial resistance of E. coli (resistance in percent),"[15]; Portugal, n 86",26.7%
same,Antimicrobial resistance of E. coli (resistance in percent),"[15]; Spain, n 191",25.1%
same,Antimicrobial resistance of E. coli (resistance in percent),"[15]; Sweden, n 193",8.8%
same,Antimicrobial resistance of E. coli (resistance in percent),"[15]; Switzerland, n 122",18.9%
same,Antimicrobial resistance of E. coli (resistance in percent),"[15]; The Netherlands, n 195",12.3%
same,Antimicrobial resistance of E. coli (resistance in percent),"[15]; Total, n 2478",14.8%
same,Antimicrobial resistance of E. coli (resistance in percent),"[15]; United Kingdom, n 180",13.3%
same,Normal susceptibility/resistance,[24],S
same,Normal susceptibility/resistance,[25],S
same,Normal susceptibility/resistance,[26],R
same,Normal susceptibility/resistance,[27],S
same,Susceptibility = S or Resistance = R,[2],S
same,Susceptibility = S or Resistance = R,[3],S
same,Susceptibility = S or Resistance = R,[4],S
same,Susceptibility = S or Resistance = R,[5],S
same,Susceptibility = S or Resistance = R,[6],S
same,Susceptibility = S or Resistance = R,[7],R
same,Susceptibility = S or Resistance = R,[8],S
same,Susceptibility = S or Resistance = R,[9],S
same,Susceptibility = S or Resistance = R,[10],S
same,Susceptibility = S or Resistance = R,[11],S
same,Susceptibility = S or Resistance = R,[12],R
same,Susceptibility = S or Resistance = R,[13],S
same,Normal susceptibility/resistance,[28],S
